Test results reported in ChEMBL document CHEMBL1201862, “PubChem BioAssay data set” (2004).
“And” between values parts separate entries of the source, which are not always exact repeats. Identical values can stand only once.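 Interpolation was linear, between the two tested concentrations surrounding the appropriate level; five concentrations were tested over 48 hours in 96-well plates. The concentration for 50% growth inhibition is given as GI50.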 The source made the active and inactive calls. No stated cut-off is given here; in the data, active = GI50 up to about 1.1 µM and inactive = higher.

Columns and labels:
Assay in all cases: growth of human tumour cells (NCI), 48 h
COLO 205 = system: COLO 205
SNB-19 = system: SNB-19
HOP-62 = system: HOP-62
OVCAR-5 = system: OVCAR-5
SK-MEL-28 = system: SK-MEL-28
CCRF-CEM = system: CCRF-CEM
Malme-3M = system: Malme-3M
IGROV-1 = system: IGROV-1
RPMI-8226 = system: RPMI-8226
SNB-75 = system: SNB-75
BT-549 = system: BT-549
RXF 393 = system: RXF 393
HCT-116 = system: HCT-116
NCI-H522 = system: NCI-H522
K562 = system: K562
Hs-578T = system: Hs-578T
EKVX = system: EKVX
HCT-15 = system: HCT-15
SK-OV-3 = system: SK-OV-3

Row | Compound | GI50 (COLO 205) | GI50 (SNB-19) | GI50 (HOP-62) | GI50 (OVCAR-5) | GI50 (SK-MEL-28) | GI50 (CCRF-CEM) | GI50 (Malme-3M) | GI50 (IGROV-1) | GI50 (RPMI-8226) | GI50 (SNB-75) | GI50 (BT-549) | GI50 (RXF 393) | GI50 (HCT-116) | GI50 (NCI-H522) | GI50 (K562) | GI50 (Hs-578T) | GI50 (EKVX) | GI50 (HCT-15) [µM] | GI50 (SK-OV-3)
1 | FC(F)(F)c1cccnc1Sc1nc2ccccc2s1 | > 100 µM (inactive) | > 100 µM (inactive) | 57.8 µM (inactive) | 34.1 µM (inactive) | > 100 µM (inactive) | > 100 µM (inactive) | > 100 µM (inactive) | 42.4 µM (inactive) | 45.8 µM (inactive) | 59.6 µM (inactive) | > 100 µM (inactive) | > 100 µM (inactive) | > 100 µM (inactive) | 80 µM (inactive) | > 100 µM (inactive) | 45.7 µM (inactive) | 63 µM (inactive) | > 100 | –
2 | O=C1C2=Cc3ccccc3CCN2c2ccccc21 | > 41.7 µM (inactive) | 46 µM (inactive) | > 63.8 µM (inactive) | 61.4 µM (inactive) | > 49.9 µM (inactive) | 13.6 µM (inactive) | 26.3 µM (inactive) | 30.2 µM (inactive) | 13.5 µM (inactive) | > 100 µM (inactive) | 13.8 µM (inactive) | > 10 µM (inactive) | 21.3 µM (inactive) | 40.2 µM (inactive) | 12.7 µM (inactive) | 41 µM (inactive) | 29 µM (inactive) | 25.6 | –
3 | CCN(CC)CCn1c2cc3c(cc2c(=O)c2cccnc21)OCCO3 | > 10 µM (inactive) | > 10 µM (inactive) | > 10 µM (inactive) | – | > 10 µM (inactive) | 5.46 µM (inactive) | > 10 µM (inactive) | > 10 µM (inactive) | > 10 µM (inactive) | > 10 µM (inactive) | > 10 µM (inactive) | > 10 µM (inactive) | 4.72 µM (inactive) | > 10 µM (inactive) | – | > 10 µM (inactive) | > 10 µM (inactive) | > 10 | > 10 µM (inactive)
4 | Cc1ccc(S(=O)(=O)NC(=O)NC(CO)C(=O)O)cc1 (stereo not given) | > 100 µM (inactive) | > 100 µM (inactive) | > 100 µM (inactive) | > 100 µM (inactive) | > 100 µM (inactive) | > 100 µM (inactive) | > 100 µM (inactive) | > 100 µM (inactive) | > 100 µM (inactive) | > 100 µM (inactive) | > 100 µM (inactive) | > 100 µM (inactive) | > 100 µM (inactive) | > 100 µM (inactive) | > 100 µM (inactive) | > 100 µM (inactive) | – | > 100 | > 100 µM (inactive)
5 | Cc1ccc(/C=C2\CCCC(CN(C)C)C2=O)cc1 (stereo not given) | 1.73 µM (inactive) | 16.4 µM (inactive) | 20.4 µM (inactive) | 15.8 µM (inactive) | 1.95 µM (inactive) | 1.26 µM (inactive) | 1.91 µM (inactive) | 1.96 µM (inactive) | – | 8.13 µM (inactive) | 2.49 µM (inactive) | 1.79 µM (inactive) | 1.69 µM (inactive) | 0.0951 µM (active) | 1.66 µM (inactive) | 3.21 µM (inactive) | 17.5 µM (inactive) | 1.97 | 13.6 µM (inactive)
6 | O=C(CC1(O)CCCCC1)OC1CCCC1 | > 100 µM (inactive) | > 100 µM (inactive) | > 100 µM (inactive) | > 100 µM (inactive) | – | – | > 100 µM (inactive) | > 100 µM (inactive) | – | > 100 µM (inactive) | > 100 µM (inactive) | > 100 µM (inactive) | > 100 µM (inactive) | > 100 µM (inactive) | – | > 100 µM (inactive) | > 100 µM (inactive) | > 100 | > 100 µM (inactive)
7 | COc1ccc(/[N+]([O-])=C/c2ccccc2OC(=S)S)cc1 | 30.1 µM (inactive) | 51.3 µM (inactive) | – | 35.9 µM (inactive) | 72.8 µM (inactive) | – | > 100 µM (inactive) | 27.6 µM (inactive) | 25.6 µM (inactive) | 62.4 µM (inactive) | 23.2 µM (inactive) | 52 µM (inactive) | 25.5 µM (inactive) | 25.1 µM (inactive) | 37.4 µM (inactive) | 33.7 µM (inactive) | 40.2 µM (inactive) | 30.6 | 86.1 µM (inactive)
8 | CC(C)C(CC(=O)OCC(CO)OC(=O)CC(C(C)C)C(C)C)C(C)C (stereo not given) | 6.73 µM (inactive) | 14.7 µM (inactive) | 10.5 µM (inactive) | 13 µM (inactive) | 16.2 µM (inactive) | 5.53 µM (inactive) | 15.1 µM (inactive) | 19.1 µM (inactive) | – | 10.2 µM (inactive) | 19.1 µM (inactive) | 16.6 µM (inactive) | 16.2 µM (inactive) | 12.6 µM (inactive) | 6 µM (inactive) | 4.85 µM (inactive) | 14 µM (inactive) | 16.9 | 16.7 µM (inactive)
9 | CCOC(=O)NCC(=O)NCC(=O)NCC(N)=O | > 100 µM (inactive) | > 100 µM (inactive) | > 100 µM (inactive) | > 100 µM (inactive) | > 100 µM (inactive) | > 100 µM (inactive) | > 100 µM (inactive) | > 100 µM (inactive) | > 100 µM (inactive) | – | > 100 µM (inactive) | > 100 µM (inactive) | > 100 µM (inactive) | > 100 µM (inactive) | > 100 µM (inactive) | > 100 µM (inactive) | > 100 µM (inactive) | > 100 | > 100 µM (inactive)
10 | COC(=O)/C=C/[C@H]1[C@H](C)N1S(=O)(=O)c1ccc(C)cc1 (stereo not given in full) | > 100 µM (inactive) | > 100 µM (inactive) | > 100 µM (inactive) | > 100 µM (inactive) | > 100 µM (inactive) | > 100 µM (inactive) | 50.2 µM (inactive) | > 100 µM (inactive) | 51.6 µM (inactive) | – | > 100 µM (inactive) | > 100 µM (inactive) | 41.8 µM (inactive) | 48.6 µM (inactive) | > 100 µM (inactive) | > 100 µM (inactive) | > 100 µM (inactive) | > 100 | > 100 µM (inactive)
11 | CC(=O)OCC1OC(n2c(C)cc(C)c(C#N)c2=S)C(OC(C)=O)C(OC(C)=O)C1OC(C)=O (stereo not given) | > 100 µM (inactive) | > 100 µM (inactive) | > 100 µM (inactive) | > 100 µM (inactive) | > 100 µM (inactive) | > 100 µM (inactive) | > 100 µM (inactive) | > 100 µM (inactive) | > 100 µM (inactive) | > 100 µM (inactive) | > 100 µM (inactive) | > 100 µM (inactive) | > 100 µM (inactive) | > 100 µM (inactive) | > 100 µM (inactive) | > 100 µM (inactive) | – | > 100 | –
12 | CCN(CC)CCC(=O)OC1C(C)=CC(C)C(=O)CC(C(C)CC2CCC(O)C(OC)C2)OC(=O)C2CCCCN2C(=O)C(=O)[C@@]2(O)OC(CCC2C)CC(OC)\C(C)=C/C=C/C=C/C(C)CC(C)C(=O)C1OC (stereo not given in full) | 12.1 µM (inactive) | 4.34 µM (inactive) | < 0.01 µM (active) | 10.3 µM (inactive) | 0.0791 µM (active) | – | – | < 0.01 µM (active) | 0.415 µM (active) | < 0.01 µM (active) | < 0.01 µM (active) | < 0.01 µM (active) | 5.89 µM (inactive) | 12.2 µM (inactive) | < 0.0183 µM (active) | < 0.01 µM (active) | < 0.01 µM (active) | 1.75 | < 0.01 µM (active)
13 | COc1c(C)c(OCC=C(C)C)cc(CO)c1CO | 58.6 µM (inactive) | 88.3 µM (inactive) | 56.5 µM (inactive) | > 100 µM (inactive) | – | 44.9 µM (inactive) | – | 38.2 µM (inactive) | 20.4 µM (inactive) | 47.6 µM (inactive) | 42.9 µM (inactive) | 10.7 µM (inactive) | 32.6 µM (inactive) | 7.46 µM (inactive) | 26.3 µM (inactive) | 44.1 µM (inactive) | 77.8 µM (inactive) | 41.5 | 97.3 µM (inactive)
14 | N#Cc1c(-c2ccccc2)c(C#N)c(=S)n(C2OC(CO)C(O)C(O)C2O)c1N (stereo not given) | – | > 100 µM (inactive) | – | > 100 µM (inactive) and 85.1 µM (inactive) | > 100 µM (inactive) | > 100 µM (inactive) and 50.9 µM (inactive) | > 100 µM (inactive) | – | > 100 µM (inactive) and 75.5 µM (inactive) | 42.2 µM (inactive) and 64.9 µM (inactive) | 46.1 µM (inactive) and 80 µM (inactive) | > 100 µM (inactive) | > 100 µM (inactive) | 33.4 µM (inactive) and 51.5 µM (inactive) | > 100 µM (inactive) and 59.4 µM (inactive) | 79.8 µM (inactive) | – | > 100 | –
15 | CC1C2CC(CC2=O)C1(C)C (stereo not given) | > 100 µM (inactive) | > 100 µM (inactive) | > 100 µM (inactive) | > 100 µM (inactive) | > 100 µM (inactive) | > 100 µM (inactive) | > 100 µM (inactive) | > 100 µM (inactive) | – | > 100 µM (inactive) | > 100 µM (inactive) | > 100 µM (inactive) | > 100 µM (inactive) | > 100 µM (inactive) | > 100 µM (inactive) | > 100 µM (inactive) | > 100 µM (inactive) | – | > 100 µM (inactive)
16 | Nc1ccc(-c2nc3ccccc3s2)cc1C#Cc1ccccc1 | 16.3 µM (inactive) | 22.3 µM (inactive) | 14.5 µM (inactive) | 27.2 µM (inactive) | – | 29.2 µM (inactive) | 12.2 µM (inactive) | 10.7 µM (inactive) | 20.9 µM (inactive) | 25.3 µM (inactive) | 17.1 µM (inactive) | 17.3 µM (inactive) | 14.4 µM (inactive) | 18.9 µM (inactive) | 31 µM (inactive) | 21.5 µM (inactive) | 20.7 µM (inactive) | 17.9 | 24.3 µM (inactive)
